From patent publication US7030287B2, “Method of decreasing nitrate nitrogen and volatile organic compound in soil and groundwater” (Matsushita Electric Industrial Co., Ltd., priority 2001, dated 2006) come the findings set out here.

One assay in a line: Artificial soil experiment (Example 1): materials mixed 1 wt % in kuroboku soil, analysis of water passed through the gravel layer. To be noted: water passed through soil with 1 wt % material, nitrate nitrogen solution 90 mg/L added 100 mL/day. Here is the method:
FIG. 1 is a sectional view showing an artificial soil experiment facility used for effecting a soil experiment in a method of decreasing nitrate nitrogen and volatile organic compounds in Example 1.
On each experiment bath 7, nozzles are placed for adding a nitrate nitrogen solution, and these nozzles are communicated with a pipe 6 in which the nitrate nitrogen solution flows.
The following experiments were conducted using the artificial soil experiment facility constituted as described above.
In the experiment bath 7, a gravel layer 3 and experiment soil 2 are placed. In each experiment soil 2, a carrot seedling 5 is planted.
The ground surface area of the experimental bath 7 was 11 m^2, and the soil depth of the experimental soil 2 was 1.4 m. Kuroboku soil was used as the experimental soil 2. Under this experiment soil 2, a gravel layer 3 is formed by placing gravels at a thickness of 20 cm from the bottom.
In 14 compartments of experiment layers 7, five carrot seedlings having a leaf length of about 14 cm were planted in each compartment, and a nitrate nitrogen solution of which nitrate nitrogen concentration had been previously controlled to 90 mg/L was added continuously at a rate of 100 mL/day using a metering pump. Of 14 compartments of experiment layers 7, in compartments Nos. 1 to 9, experiment materials of the present invention were mixed in soil, and in compartments Nos. 10 to 14, comparative materials were mixed in soil, before experiments.
The experiment soils 2 in each test district and comparative district were made by uniformly mixing experiment materials (fatty acid, alcohol and the like) and comparative materials (materials used in conventional technologies) in a soil dry weight ratio of 1 wt %, previously.
In the artificial soil experiment facility constituted as described above, water passed through the gravel layer 3 was collected, and analyses of the nitrate nitrogen concentration, ammonia nitrogen concentration and total carbon concentration after 65 days were conducted according to JIS methods.
For `CCCCCCCCCCCCCCCCOC(=O)CCCCCCCCCCCCCCC` [Cetyl palmitate], the “Nitrate nitrogen concentration after 65 days” value was found to be 20 mg/L.
On to `OC[C@H]1O[C@@H](O[C@H]2[C@H](O)[C@@H](O)C(O)O[C@@H]2CO)[C@H](O)[C@@H](O)[C@H]1O` (stereo partly drawn) [Lactose, reference compound], for which the “Nitrate nitrogen concentration after 65 days” value is on record as 41 mg/L.
With `CCCCCCCCCCCCCCCCCC(=O)O` [Stearic acid], the “Nitrate nitrogen concentration after 65 days” value is given as 22 mg/L.
Same read-out and setting: for `CCCCCCCCCCCCO` [lauryl alcohol] the value was 18 mg/L; for Sorbitan distearate, 14 mg/L.

Another assay in a line: Well experiment in soil polluted with tetrachloroethylene (Example 8): analysis of water collected from the well. To be noted: 30 kg added over 6 days, initial about 0.25 mg/L. How it is done: In the method of decreasing nitrate nitrogen and volatile organic compounds in Example 8, an experiment was conducted using a well provided in soil polluted with tetrachloroethylene.
It had been known by previous investigation that about 125 m^2 of the surface of soil was polluted, and a water-containing layer at a position 6 m below the ground surface was polluted. In this water-containing layer, the tetrachloroethylene concentration was about 0.25 mg/L.
30 kg of stearylamine was gradually added over 6 days through a well in the polluted soil, and the tetrachloroethylene concentration, total carbon concentration and total nitrogen concentration after 90 days were analyzed from water collected from the well.
In the case of `CCCCCCCCCCCCCCCCCCN` [stearylamine], the “tetrachloroethylene concentration after 90 days” value is on record as 0.08 mg/L.

A short description of another assay: Column experiment (Example 3): nitrate-polluted well water passed through column filled with material. To be noted: well water (nitrate nitrogen 14 mg/L) after column, passing time 5.5 hours, 21° C. From the text:
FIG. 3 is a view showing the structure of a column experiment apparatus used for effecting the method of decreasing nitrate nitrogen and volatile organic compounds in Example 3. Here, the column is a vessel having a function of decreasing nitrate nitrogen and volatile organic compounds, and decreases nitrate nitrogen and volatile organic compounds by allowing groundwater such as well water and the like to pass. In Example 3, a resin column having a diameter of 28 cm and a height of 2 m was used.
Well water evacuated from a well 23 by a pump 24 flow into this column 21 through an introduction port 25 of the column 21. It is so constituted that well water which comes into with the experiment material 22 while rising in the column 21, is discharged from an outflow port 26 formed at the upper part of the column 21.
Column experiments were conducted as described below using the column experiment apparatus constituted as described above.
From already-provided well polluted with nitrate nitrogen (nitrate nitrogen concentration: 14 mg/L), well water was evacuated by a pump 24 and allowed to flow into the column 21. In Example 3, six resin columns having a diameter of 28 cm and a height of 2 m were used, and experiments were conducted on 12 kinds of experiment materials using the resin columns each twice.
In the examples, experiment materials of the present invention such as fatty acids and alcohols were filled in columns (column Nos. 1 to 8) and comparative materials of conventional technologies were filled in columns (column Nos. 9 to 12) for comparison, and the evacuated groundwater was passed through them. In these experiments, substantial filling heights of the experiment materials in the columns were all 1.8 m. The passing time of groundwater in the column was 5.5 hours, and the average environment temperature during the experiment period was 21° C.
The nitrate nitrogen concentration, ammonia nitrogen concentration and total carbon concentration of the well water after passing through the column 30 days after initiation of passing of well water which is experiment initiation were measured.
As to `CCCCCCCCCCCCCCCCCCCCCC(=O)O` [Behenic acid], the “Nitrate nitrogen concentration after 30 days” value was found to be 1.8 mg/L.
Take `CCCCCCCCCCCCCCCCCC(=O)OC` [Methyl stearate]: the “Nitrate nitrogen concentration after 30 days” value turned out to be 1.4 mg/L.
The same measure, in the same setting: for `CCCCCCCCCCCCCCO` [Myristyl alcohol] the value was 2.5 mg/L; for `OC[C@H]1O[C@@](CO)(O[C@H]2O[C@H](CO)[C@@H](O)[C@H](O)[C@H]2O)[C@@H](O)[C@@H]1O` [Sucrose, reference compound], 15.0 mg/L; for Sorbitan monomyristate, 1.6 mg/L.

A short description of another assay: Artificial groundwater experiment (Example 2): 800 g hydrogen donor added from artificial well, analysis of sampled groundwater. The following applies: 800 g material, nitrate nitrogen solution 40 mg/L added 12 mL/day. An excerpt:
FIG. 2 is a sectional view showing an artificial groundwater experiment facility used for effecting a groundwater experiment in the method of decreasing nitrate nitrogen and volatile organic compounds in Example 2.
In the experiment bath 17 surrounded by the concrete block frame 11 in the artificial groundwater experiment facility, the ground surface area of the experiment soil 12 was 18 m^2, and the soil depth was 6.0 m. Under this experiment soil 12, a gravel layer 13 is formed at a thickness of 50 cm. A mixture of kuroboku soil and loam at a ratio of about 6:4 was used as the experiment soil 12.
In the experiment bath 17, an artificial well 14 constituted of a vinyl chloride tube having a diameter of 20 cm is provided. This artificial well 14 is provided at a position 0.5 m from the inner wall surface at one end of the experiment bath 17 (this inner wall surface is standard position) and has a depth of about 6 m, and reaches to the gravel layer 13. Further, a nitrate nitrogen solution addition piper 16 for adding a nitrate nitrogen solution is buried at a position 2 m from the inner wall surface (standard position) of the experiment bath 17 in the artificial groundwater experiment facility, extending to a position 4 m depth from the ground surface. A measurement water incorporating port 15 communicating to outside is provided on another inner wall surface opposite to the standard surface, one inner wall surface. This measurement water incorporating port 15 is formed at a position 50 cm from the bottom (corresponding to the uppermost part of the gravel layer 13), and provided for sampling measurement water which is groundwater.
The following experiments were conducted in 12 compartments using the artificial soil experiment facility constituted as described above.
In each experiment bath 17, a nitrate nitrogen solution of which nitrate nitrogen concentration had been previously controlled to 40 mg/L was added continuously from the end of the nitrate nitrogen solution adding pipe 16 (position 4 m from the ground surface) at a rate of 12 mL/day using a metering pump.
Under the above-mentioned conditions, movement of artificial groundwater is estimated to about 6.5 m/year. The present inventors have added 800 g of each hydrogen donor from the artificial well 14 in each test district and each comparative district. 30 days after initiation of the test, water was sampled from the measurement water incorporating port 15 formed at a position 50 cm from the bottom (corresponding to the uppermost part of gravel layer), and analyses of the nitrate nitrogen concentration, ammonia nitrogen concentration and total carbon concentration of the collected water were conducted according to JIS methods.
Consider `CCCCCCCCCCCCCCOC(=O)CCCCCCCCCCCCC` [Myristyl myristate], for which the “Nitrate nitrogen concentration after 30 days” value amounted to 5 mg/L.
Still for that read-out and setting: under `CCCCCCCCCCCCCCCCCCO` [Stearyl alcohol] stands 4 mg/L; under Myristilate, 9 mg/L.
Same read-out and setting: for Sorbitan monopalmitate the value was 5 mg/L.
For Tetraglyceryl pentastearate, the “Nitrate nitrogen concentration after 30 days” value was determined as 8 mg/L.

A further assay is described as follows: Polluted soil experiment (Examples 4 to 7): 1,1-dichloroethylene concentration in polluted soil by GC-MS. To be noted: Example 4, 1 wt % material in polluted soil (about 50 μg/L initially), diammonium hydrogen phosphate fed. An excerpt:
(§1) FIG. 4 is a view showing an experiment facility used for effecting the method of decreasing nitrate nitrogen and volatile organic compounds in Example 4. A part (a) of FIG. 4 is a plan view of the experiment facility, and a part (b) of FIG. 4 is a side view thereof.
(§2) As shown in the part (a) of FIG. 4, the polluted soil 32 is provided approximately at the center of the experiment bath 34 so that it is surrounded by the experiment soil 33.
(§3) In Example 4, the concrete frame 31 in the form of square measure is a cube of 1 m square having open upper part, and artificial soil prepared by mixing kuroboku soil and loam in equivalent amounts was charged in the experiment bath 34 formed with the concrete frame 31 and allowed to stand outdoors (average temperature: 21° C.) for about 2 months.
(§4) Then, the surface of the artificial soil formed as described above was dug to form a hole in the form of cylinder having a diameter of 30 cm and a depth of 50 cm, and this hole was re-buried with the polluted soil 32.
(§5) The polluted soil was obtained by adding experiment materials (containing no nitrogen atom) such as fatty acids and alcohols of the present invention and comparative materials of conventional technologies used for comparison in an amount of 1 wt % to 1.2 ton of soil polluted with 1,1,1-trichloroethane and 1,1-dichloroethylene (containing about 1400 μg/L of […], about 50 μg/L of 1,1-dichloroethylene, by elution test according to Kankoku No. 46), and mixing kuroboku soil and loam in equivalent amounts uniformly.
(§6) To the polluted soil formed as described above was fed diammonium hydrogen phosphate having a concentration of 100 mg/L as a nutrient salt (nitrogen source) at a ratio of 140 L/day.
(§7) Under the above-mentioned conditions, the concentrations of 1,1,1-trichloroethane and 1,1-dichloroethylene in the polluted soil 32 were measured by gas chromatograph mass spectrometry 20 days after initiation of the experiment. Soils around the re-buried polluted soil 32 (soils on four corners A to D at a depth of 50 cm in FIG. 4) were sampled, and four-point average values of the total carbon concentration and total nitrogen concentration per soil dried weight were measured.
(§8) In the method of decreasing nitrate nitrogen and volatile organic compounds in Example 5, the same experiment facility (FIG. 4) as in Example 4 was used. Stearic acid was used as the decreasing agent such as fatty acids, alcohols and the like used in the present invention, and an iron powder having an average particle size of about 15 μm was added simultaneously with this stearic acid, to give polluted soil of compartment No. 1. In polluted soil of compartment No. 2, stearic acid and an aluminum powder having an average particle size of 180 μm were added in the same concentration as the polluted soil of compartment No. 1. The same experiment as in Example 4 was conducted on these polluted soils (compartment Nos. 1, 2).
(§9) In the method of decreasing nitrate nitrogen and volatile organic compounds in Example 6, the same experiment facility (FIG. 4) as in Example 4 was used. Beef tallow fatty acid was used as the decreasing agent such as fatty acids, alcohols and the like used in the present invention, and a bacteria previously cultured was inoculated to the soil and the same experiment as in Example 4 was conducted.
(§10) For obtaining the bacteria used in Example 6, 1,1,1-trichloroethane was controlled to 5000 μg/L, 1,1-dichloroethylene was controlled to 5000 μg/L, diammonium hydrogen phosphate was controlled to 800 mg/L and beef tallow fatty acid which was only carbon source was controlled to 0.5 wt % in soil collected at a point of 30 cm depth from the ground surface of agricultural land (tea field), and the medium was cultured at a temperature of 16° C. for 12 days.
(§11) In the method of decreasing nitrate nitrogen and volatile organic compounds in Example 7, the same experiment facility (FIG. 4) as in Example 4 was used. […]
With `CCCCCCCCCCCCCCCCCC(=O)O` [Stearic acid], the “1,1-dichloroethylene concentration after 20 days” value was determined as 24 µg/L.

A short description of another assay: Polluted soil experiment (Examples 4 to 7): 1,1,1-trichloroethane concentration in polluted soil by GC-MS. The following applies: Example 4, 1 wt % material in polluted soil (about 1400 μg/L initially), diammonium hydrogen phosphate fed.
Description: as §1, §2, §3, §4, §5, §6, §7, §8, §9, §10, §11
As to `CCCCCCCCCCCCCCCCCC(=O)O` [Stearic acid], the “1,1,1-trichloroethane concentration after 20 days” value is 820 µg/L.
